Values quoted from earlier work in patent publication US20160000732A1, “ORAL PHARMACEUTICAL COMPOSITIONS OF OSPEMIFENE” (CADILA HEALTHCARE LIMITED, priority 2014, published 2016).

How the values were obtained:
[1] = experimental models and human volunteers; WO 1996/07402, WO 1997/32574
[2] = classical hormonal tests, Kangas 1990

SMILES: OCCOc1ccc(/C(=C(/CCCl)c2ccccc2)c2ccccc2)cc1 [Ospemifene, 2-[4-(4-chloro-1,2-diphenylbut-1-enyl)phenoxy]ethanol]
- total and LDL cholesterol levels [1]: decreases
- estrogenic and antiestrogenic effects [2]: relatively weak
